The source of these data is patent publication US8697747B2, “Enhancing coagulation or reducing fibrinolysis” (THe UAB Research Foundation, priority 2009, dated 2014).

One assay deals with rat plasma. The experiment in a line: Thrombelastography in rat plasma with or without tPA. The class given is biochemical. The method, then: Two sets of two Sprague Dawley outbred male rats were anesthetized with ketamine and xylazine and had blood drawn via cardiac puncture, pooled in two batches, and anticoagulated 1:9 with 3.2% sodium citrate. Two male New Zealand White rabbits were sedated with acepromazine and had blood collected via central ear artery and similarly anticoagulated. Blood was centrifuged at 3000×g for 15 min, and the plasma stored in two batches until analyzed. The final volume for thrombelastographic plasma sample mixtures was 359.6 μL. Sample composition consisted of 316 μL of plasma; 10 μL of tissue factor reagent (0.1% final concentration in dH2O; Instrumentation Laboratory, Lexington, Mass.); 10 μL of dH2O or tissue-type plasminogen activator (tPA, 580 U/μg, Genentech, Inc., San Francisco, Calif.) for a final activity of 2000 U/mL for rat plasma or 300 IU/mL for rabbit plasma; 3.6 μL of dimethyl sulfoxide (DMSO) or DMSO with CORM-2 (100 μM final concentration; Sigma-Aldrich, St. Louis, Mo.); and 20 μL of 200 mM CaCl2. The tPA activity for each species was determined with pilot data to obtain reproducible lysis within 15 min. There was no appreciable lysis in rat plasma at 100, 300, or 1000 U/mL tPA. Plasma sample mixtures were placed in a disposable cup in a computer-controlled THROMBELASTOGRAPH® hemostasis system (Model 5000, Haemoscope Corp., Niles, Ill.), with addition of CaCl2 as the last step to initiate clotting. In experiments without tPA, data were collected until clot strength (maximum amplitude) was stable. In experiments with tPA, data derived from the second rabbit plasma samples were collected for 60 min whereas data obtained with the second rat plasma samples were collected for 15 min. Thrombelastographic variables were determined at 39° C. as previously described in Examples 1, 2, and 4. Data were statistically compared with unpaired Student's t-test.

The subject of assay [1] is fibrinogen deficient plasma. The experiment in a line: Thrombelastography in fibrinogen deficient plasma with added fibrinogen. The format is biochemical, human. The protocol:
Plasma types, purified proteins and compounds. Prothrombin deficient plasma (George King Bio-Medical, Overland Park, Kans.) anticoagulated with sodium citrate was utilized for experimentation concerning the effects of CORM-2 on prothrombin. Purified prothrombin (Enzyme Research Laboratories, South Bend, Ind.) that was 95% pure (10.4 mg/mL, 11.1 U/mg, suspended in 20 mM Tris-HCl in 0.1M NaCl at pH 7.4) was used for experimentation. Fibrinogen deficient plasma (Affinity Biologicals, Inc., Ancaster, Ontario, Canada) anticoagulated with sodium citrate was used in experiments investigating the effects of CORM-2 on fibrinogen. […] CORM-2 and dimethyl sulfoxide (DMSO) were obtained from Sigma-Aldrich, St. Louis, Mo.
Fibrinogen deficient plasma experiments. In these experiments, the final plasma sample mixture volume was 358.6 μL. Sample composition consisted of 260 μL of fibrinogen deficient plasma, 65 μL of pure fibrinogen solution, and dH2O to generate discrete fibrinogen concentrations subsequently described, 3.6 μL of DMSO or CORM-2 in DMSO (final CORM-2 concentration 0 or 100 μM, n=4 per fibrinogen concentration), 10 μL of tissue factor reagent (0.1% final concentration), and 20 μL of 200 mM CaCl2. The fibrinogen concentrations studied were 100, 200, 300, 400, 500, 600, and 800 mg/dL.
Thrombelastographic monitoring. Plasma sample mixtures were placed in a disposable cup in a computer-controlled THROMBELASTOGRAPH® hemostasis system (Model 5000, Haemoscope Corp., Niles, Ill.), with addition of CaCl2 as the last step to initiate clotting. Data were collected until clot strength stabilized. The following previously described variables (Examples 1-3) were determined at 37° C.: Time to maximum rate of thrombus generation (TMRTG): This is the time interval (sec) observed prior to maximum speed of clot growth. […]
Statistical Analyses. […] The difference between the mean values of MRTG or TTG in samples exposed to 0 or 100 μM CORM-2 were determined and expressed as percent difference secondary to CORM-2 exposure in the fibrinogen deficient plasma experiments.

Where [2] appears, read: 2000 U/ml tPA, 100 μM CORM-2, mean ± SD, n=4.
Setting [3] is: 2000 U/ml tPA, 100 μM vs 0 μM CORM-2.
Setting [4] is: no tPA, 100 μM CORM-2, mean ± SD, n=4.
Setting [5] is: 100 μM vs 0 μM CORM-2, fibrinogen 300 mg/dL.

As for `[C-]#[O+].[C-]#[O+].[C-]#[O+].[C-]#[O+].[C-]#[O+].[C-]#[O+].[Cl][Ru][Cl].[Cl][Ru][Cl]` [CORM-2, tricarbonyldichlororuthenium (II) dimer], in the assay with rat plasma (setting [2]), the “ACL (area under the curve of lysis)” value is 0 ± 0 −dynes/cm^2, the “MRL (maximum rate of lysis)” value is on record as 0.0 ± 0.0 −dynes/cm^2/sec, the “MRTG (maximum rate of thrombus generation)” value was 14.7 ± 0.6 dynes/cm^2/sec and the “TMRTG (time to maximum rate of thrombus generation)” value is 1.5 ± 0.1 min. The “TTG (total thrombus generation)” value in the assay with rat plasma (setting [2]) was determined as 230 ± 6 dynes/cm^2. The “TMRL (time to maximum rate of lysis)” value with rat plasma (2000 U/ml tPA, 100 μM CORM-2, n=4) is “No Lysis”. Moreover, in the assay with rat plasma (setting [3]), the “Percent Change of ACL” value is −100%, the “Percent Change of MRL” value was −100%, the “Percent Change of MRTG” value stood at 29% and the “Percent Change of TMRTG” value is listed as 0%. Moreover, the “Percent Change of TTG” value with rat plasma (setting [3]) came to 23%. Besides, in the assay with rat plasma (setting [4]), the “MRTG (maximum rate of thrombus generation)” value was found to be 14.7 ± 0.6 dynes/cm^2/sec, the “TMRTG (time to maximum rate of thrombus generation)” value amounted to 1.5 ± 0.1 min and the “TTG (total thrombus generation)” value worked out at 230 ± 6 dynes/cm^2. In the assay with rat plasma (no tPA, 100 μM vs 0 μM CORM-2), the “Percent Change of MRTG” value is 29%, the “Percent Change of TMRTG” value turned out to be 0% and the “Percent Change of TTG” value is 23%. In addition, in assay [1] (100 μM CORM-2, fibrinogen 100-800 mg/dL), the “TMRTG, range of values” lay in the range of 2.83 to 4.00 min. In assay [1] (setting [5]), the “increase in MRTG secondary to CORM-2 exposure” value is recorded as above 80% and the “increase in TTG secondary to CORM-2 exposure” value is recorded as above 80%.
